Data taken from US12486301B2, “8-fluoro-4-alkylumbelliferyl α-D-glucopyranoside, biological sterilization indicator including the same and its use in a method of determining efficacy of a sterilization process” (Solventum Intellectual Properties Company, priority 2019, dated 2025).

Columns and labels:
[1] = Enzyme substrate degradation in culture media at various temperatures (fluorescence); format: physicochemical; conditions: 0.3 mg/mL; for MEASURED FLUORESCENCE, RFU 70° C. 15 min: 70° C. dry heat block 15 min; for MEASURED FLUORESCENCE, RFU 100° C. 15 + 15 min: 100° C. 15 min, second time 15 min; for MEASURED FLUORESCENCE, RFU 100° C. 15 min: 100° C. heat block 15 min; for MEASURED FLUORESCENCE, RFU RT 15 min: room temperature (24.5° C.)
Experimental: Culture media was prepared by dissolving 5 g/L peptone C (BD 211921) and 12 g/L phytone peptone (BD BBL 211906) in deionized water. The pH was adjusted with 1 N NaOH or 0.1 N HCl, the media brought to volume, and then filter sterilized with a 0.22 micron PES filter. Stock solutions ([…]) of 8′-fluoro-4′-methylumbelliferyl-α-D-glucopyranoside, 6′-fluoro-4′-methylumbelliferyl-α-D-glucopyranoside, and 4-methylumbelliferyl-α-D-glucopyranoside were prepared in DMSO. The aforementioned substrates were added to culture media at a final concentration of 0.1 mg/ml and media were then 0.22 μm filter sterilized.
(§1) One milliliter of filter-sterilized culture media (pH 6) containing 0.3 mg/ml of 8′-fluoro-4′-methylumbelliferyl-[…]-D-glucopyranoside substrate was transferred to three 1.5 ml microcentrifuge tubes. One of the 1.5 ml tubes was kept at room temperature (24.5° C.). The second tube was placed in a 70° C. dry heat block for 15 min and the third tube was placed in a 100° C. heat block for 15 min. Tubes were kept at room temperature for 30 min following heat exposure, briefly vortexed and centrifuged to collect liquid. One hundred microliters of culture media with substrate from each of the tubes was transferred to two wells (100 microliters per well) of a black 96-well microtiter plate with (NUNC #165301, Thermo Fisher Scientific). The top of the plate was covered with an optically clear sealing film (product #4311971, Applied Biosystems Corporation). Fluorescence readings (360 nm excitation/455 nm emission at 50% gain) were taken from the top of the plate.
(§2) The tube exposed to 100° C. (with 800 ul of remaining media with substrate) was exposed for a second time to 100° C. for 15 min in a dry heat block. One hundred microliters of culture media with substrate from the tube was transferred to two wells (100 microliters per well) of a black 96-well microtiter plate with (NUNC #165301, Thermo Fisher Scientific). The top of the plate was covered with an optically clear sealing film (product #4311971, Applied Biosystems Corporation). Fluorescence readings (360 nm excitation/455 nm emission at 50% gain) were taken from the top of the plate. In Table 9, the mean fluorescence values detected (RFU) for each of the heating conditions are reported.
as §1, with “7)” for “6)”
as §2, with “10,” for “9,”, “reported. […]” for “reported.”

[2] = system: Geobacillus stearothermophilus spores (ATCC 7953); assay: Fluorescence from enzyme substrates incubated with Geobacillus stearothermophilus spores in culture media; format: cell-based; conditions: substrate 0.1 mg/mL, 60° C.
[3] = pH 6 culture media, 5×10^3 spores
[4] = pH 6 culture media, 5×10^6 spores
[5] = pH 7 culture media, 5×10^6 spores
[6] = pH 8 culture media, 5×10^3 spores
[7] = pH 8 culture media, 5×10^6 spores
[8] = pH 9 culture media, 5×10^3 spores
[9] = pH 9 culture media, 5×10^6 spores

MEASURED FLUORESCENCE, RFU 70° C. 15 min ([1]; pH 6 culture media): 774.5 RFU
MEASURED FLUORESCENCE, RFU 100° C. 15 + 15 min ([1]; pH 6 culture media): 888 RFU
MEASURED FLUORESCENCE, RFU 100° C. 15 min ([1]; pH 6 culture media): 829 RFU
MEASURED FLUORESCENCE, RFU RT 15 min ([1]; pH 6 culture media, no spores, 360 nm excitation/455 nm emission): 751 RFU
MEASURED FLUORESCENCE, RFU 70° C. 15 min ([1]; pH 7 culture media): 809 RFU
MEASURED FLUORESCENCE, RFU 100° C. 15 + 15 min ([1]; pH 7 culture media): 893.5 RFU
MEASURED FLUORESCENCE, RFU 100° C. 15 min ([1]; pH 7 culture media): 862 RFU
MEASURED FLUORESCENCE, RFU RT 15 min ([1]; pH 7 culture media): 671 RFU
MEASURED FLUORESCENCE, RFU 70° C. 15 min ([1]; pH 8 culture media): 823.5 RFU
MEASURED FLUORESCENCE, RFU 100° C. 15 + 15 min ([1]; pH 8 culture media): 939 RFU
MEASURED FLUORESCENCE, RFU 100° C. 15 min ([1]; pH 8 culture media): 857.5 RFU
MEASURED FLUORESCENCE, RFU RT 15 min ([1]; pH 8 culture media): 788.5 RFU
MEASURED FLUORESCENCE, RFU 70° C. 15 min ([1]; pH 9 culture media): 862.5 RFU
MEASURED FLUORESCENCE, RFU 100° C. 15 + 15 min ([1]; pH 9 culture media): 1099 RFU
MEASURED FLUORESCENCE, RFU 100° C. 15 min ([1]; pH 9 culture media): 978.5 RFU
MEASURED FLUORESCENCE, RFU RT 15 min ([1]; pH 9 culture media): 694 RFU
Structure (SMILES): Cc1cc(=O)oc2cc(O[C@H]3O[C@H](CO)[C@@H](O)[C@H](O)[C@H]3O)ccc12 [MUG, 4′-methylumbelliferyl-α-D-glucopyranoside]
MEASURED FLUORESCENCE, RFU +5 min [2, 3]: 585 RFU
MEASURED FLUORESCENCE, RFU +30 min [2, 3]: 1210 RFU
MEASURED FLUORESCENCE, RFU 10 sec [2, 4]: 4600 RFU
MEASURED FLUORESCENCE, RFU +5 min [2, 4]: 9209 RFU
MEASURED FLUORESCENCE, RFU +10 min [2, 4]: 10250 RFU
MEASURED FLUORESCENCE, RFU +30 min [2, 4]: 9996 RFU
MEASURED FLUORESCENCE, RFU 10 sec ([2]; pH 7 culture media, 5×10^3 spores): 676 RFU
MEASURED FLUORESCENCE, RFU 10 sec [2, 5]: 10780 RFU
MEASURED FLUORESCENCE, RFU +5 min [2, 5]: 22443 RFU
MEASURED FLUORESCENCE, RFU +10 min [2, 5]: 26791 RFU
MEASURED FLUORESCENCE, RFU +30 min [2, 5]: 24911 RFU
MEASURED FLUORESCENCE, RFU 10 sec [2, 6]: 704 RFU
MEASURED FLUORESCENCE, RFU +5 min [2, 6]: 661 RFU
MEASURED FLUORESCENCE, RFU +10 min [2, 6]: 700 RFU
MEASURED FLUORESCENCE, RFU 10 sec [2, 7]: 12320 RFU
MEASURED FLUORESCENCE, RFU +5 min [2, 7]: 32993 RFU
MEASURED FLUORESCENCE, RFU +10 min [2, 7]: 51516 RFU
MEASURED FLUORESCENCE, RFU +30 min [2, 7]: 53517 RFU
MEASURED FLUORESCENCE, RFU 10 sec [2, 8]: 698 RFU
MEASURED FLUORESCENCE, RFU +5 min [2, 8]: 634 RFU
MEASURED FLUORESCENCE, RFU +10 min [2, 8]: 621 RFU
MEASURED FLUORESCENCE, RFU +30 min [2, 8]: 1153 RFU
MEASURED FLUORESCENCE, RFU 10 sec [2, 9]: 5777 RFU
MEASURED FLUORESCENCE, RFU +5 min [2, 9]: 19462 RFU
MEASURED FLUORESCENCE, RFU +10 min [2, 9]: 43381 RFU
MEASURED FLUORESCENCE, RFU +30 min [2, 9]: 64660 RFU
